Source: PMC6956045 (Pharmaceutics, 2019)
In brackets after ≈: the same amount, converted by molar mass.

How the values were obtained:
[1] = Bulk phase partition coefficient n-octanol/phosphate buffer; type: physicochemical; settings: pH 6.8, read-out: n-Octanol partition coefficient P (converted)
Method: The partition coefficient was calculated as the ratio between octanol concentration and the aqueous concentration. Three replicates were done to determine the average value.
Partition coefficients can be used as an index to provisionally classify compounds in terms of permeability.

[2] = cited from earlier work
[3] = Solubility assay: saturation shake-flask method; type: physicochemical; settings: for solubility at 8 h: thermodynamic from solid, 37 °C, shake-flask
Method: The solubility assays were performed according to the World Health Organization (WHO) guidelines protocols. […] A sample concentration was determined using high-performance liquid chromatography (HPLC) with ultraviolet (UV) detection.

[4] = cited from earlier work; remark: listed apart in the source
[5] = tested on: Caco-2 cell monolayers; assay: Permeability assay: Caco-2 transport studies; type: in vitro ADME
Method: Caco-2 cells were grown in a polycarbonate membrane. To reach the confluence, 250,000 cells/cm^2 were seeded in six Transwell plates and […] for 19–22 days with Dubelcco’s Modified Eagle’s Media, with 1% L-glutamine, 10% fetal bovine serum, and 1% penicillin/streptomycin, at 37 °C temperature, 90% relative humidity, and 5% CO2.
The confluence of the cells was tested by measuring the transepithelial electrical resistance (TEER). Permeability studies were conducted with an orbital shaking (50 rpm) and with pH 7.0 in both chambers. Standard protocols were described and validated previously in our laboratory. Four samples of 200 µL were taken and replaced with a fresh buffer from the receiver side at 15, 30, 45, and 90 min.
Permeability studies were performed in both directions: apical-to-basal (A-to-B) and basal-to-apical (B-to-A).
The apparent permeability coefficient was calculated according the following equation:(1) Creceiver,t=Qtotal/Vreceiver+Vdonor+((Creceiver,t−1·f)−Qtotal/Vreceiver+Vdonor)·e^−Peff 0,1·S·(1/Vreceiver+1/Vdonor)·Δt where Creceiver,t is the drug concentration in the receiver chamber at time t, Qtotal is the total amount of drug in both chambers, Vreceiver and Vdonor are the volumes of each chamber, Creceiver,t−1 is the drug concentration in the receiver chamber at the previous time, f is the sample replacement dilution factor, S is the surface area of the monolayer, Δt is the time interval, and Peff is the permeability coefficient as was described by Mangas-Sanjuan et al..
Experiments in the presence of the formulation excipients were done by dissolving a formulation tablet in 250 mL of buffer and filtrating the obtained dispersion to eliminate nonsoluble excipients.

SMILES	logD [1]	Solubility in chloroform [2]	Solubility in water, methanol and acetonitrile [2]	Solubility classification [3]	solubility at 8 h ([3]; buffer solution pH 1.2, aqueous buffer, pH 1.2 buffer) [mg/mL]	solubility at 8 h ([3]; buffer solution pH 4.5, aqueous buffer, pH 4.5 buffer) [mg/mL]	solubility at 8 h ([3]; buffer solution pH 6.8, aqueous buffer, pH 6.8 buffer) [mg/mL]	Volume in which the highest strength/dose (40 mg) would be soluble ([3]; pH 1.2) [mL]	First-pass hepatic effect (of the absorbed drug) [4] [%]	Intestinal absorption (of dose administered) [4] [%]	Concentration dependence of permeability ([5]; Caco-2, 50-1000 μM)	Permeability compared with metoprolol ([5]; Caco-2, pH 7.0 both chambers, drug in solution)	Permeability in the presence of sodium azide ([5]; Caco-2, passive diffusion permeability, transporter contribution nullified)	log P [2]	pKa [2]
COCCc1ccc(OCC(O)CNC(C)C)cc1 (stereo not shown) [Metoprolol]	-0.638	–	–	–	–	–	–	–	–	–	–	–	–	–	–
CC[C@H](C)C(=O)O[C@H]1C[C@H](O)C=C2C=C[C@H](C)[C@H](CC[C@@H](O)C[C@@H](O)CC(=O)O)[C@H]21 [Pravastatin sodium]	–	practically insoluble	easily soluble	–	–	–	–	–	–	–	–	–	–	–	–
CC[C@H](C)C(=O)O[C@H]1C[C@H](O)C=C2C=C[C@H](C)[C@H](CC[C@@H](O)C[C@@H](O)CC(=O)O)[C@H]21 [Pravastatin]	-0.155	–	–	highly soluble	440 ± 17.4 (≈ 1040 mM)	504 ± 24.2 (≈ 1190 mM)	480 ± 17.4 (≈ 1130 mM)	0.09	66	34	permeability increased at higher concentrations	lower than that of metoprolol	as high as metoprolol permeability	1.65	4.21
